Data taken from article PMC8839448, “Novel Pyridothienopyrimidine Derivatives: Design, Synthesis and Biological Evaluation as Antimicrobial and Anticancer Agents” (Molecules, 2022).
In brackets after ≈: the same amount, converted by molar mass. Several values for one entry are separate records, joined by “and”; a condition that tells them apart may be missing. Equal entries are not always repeated. Where two headings read alike, the source gives them in different places.

Assays:
[1] = system: Staphylococcus aureus 25923; assay: In vitro antibacterial activity, MIC by broth dilution; assay type: cell-based; conditions: Gram +ve bacteria, read-out: MIC S. aureus
[2] = system: Bacillus subtilis 6633; assay: as above; assay type: cell-based; conditions: Gram +ve bacteria, read-out: MIC B. subtilis
[3] = system: Bacillus cereus 33018; assay: as above; assay type: cell-based; conditions: Gram +ve bacteria, read-out: MIC B. cereus
[4] = system: Escherichia coli 8739; assay: as above; assay type: cell-based; conditions: Gram −ve bacteria
[5] = system: Salmonella typhimurium 14028; assay: as above; assay type: cell-based; conditions: Salmonella enterica, Gram −ve bacteria, read-out: MIC S. typhimurium
[6] = system: Candida albicans 10231; assay: In vitro antifungal activity, MIC by broth dilution; assay type: cell-based; conditions: yeast, read-out: MIC C. albicans
[7] = system: Candida tropicals 750; assay: as above; assay type: cell-based; conditions: yeast, read-out: MIC C. tropicals
[8] = system: Saccharomycese cerevisiae; assay: as above; assay type: cell-based; conditions: Saccharomyces cerevisiae, yeast, read-out: MIC S. cerevisiae
[9] = system: Aspergillus flavus; assay: as above; assay type: cell-based; conditions: fungi
[10] = system: Aspergillus niger EM77 (KF774181); assay: as above; assay type: cell-based; conditions: fungi
[11] = system: hepatocellular carcinoma (HepG2) cells; assay: Cytotoxicity, MTT assay; assay type: cell-based; conditions: Homo sapiens, read-out: Cytotoxic activity IC50 HepG2
[12] = system: breast cancer (MCF-7) cells; assay: Cytotoxicity, MTT assay; assay type: cell-based, human; conditions: read-out: Cytotoxic activity IC50 MCF7
[13] = system: five bacterial strains; assay: Antibacterial MIC, range over the panel; assay type: cell-based
[14] = system: HepG2 and MCF-7 cancer cell lines; assay: Cytotoxicity, MTT assay, range over both cancer cell lines; assay type: cell-based, human; conditions: Homo sapiens; range over HepG2 and MCF-7; read-out: IC50 range, cytotoxic activity against both cell lines
[15] = system: all the tested yeasts and fungi strains; assay: Antifungal MIC, range over the panel; assay type: cell-based
[16] = Cytotoxicity against normal cells, MTT assay; conditions: human, WISH normal cells
Text: The cytotoxicity was estimated as IC50 in μM for the tested compounds and the reference drug doxorubicin, and are listed in Table 3.

[17] = target: EGFR kinase (Homo sapiens, UniProt P00533); assay: In vitro EGFR kinase inhibitory assay (Kinase-Glo MAX kit); conditions: for IC50: EGFR IC50, EGFR kinase assay kit, triplicate, ± SD
Experimental: The assay kit is designed to measure EGFR Kinase activity for screening applications using Kinase-Glo® MAX as a detection reagent. The luminescence was measured using a microplate reader (Infinite M200 microplate reader, Tecan, Männedorf, Switzerland) [54]. All assays were performed in triplicate and the relative inhibition (%) of inhibitors was then calculated via comparison with the control with no inhibitor.
In vitro EGFR kinase assay
The assay Kit is designed to measure EGFR Kinase
activity for screening applications using Kinase-Glo® MAX as a detection reagent
using Kinase-Glo® MAX as a detection reagent. Thaw 5x Kinase Buffer 1: ATP and
PTK substrate Poly (Glu:Tyr 4:1) (10 mg/ml) kinase was provided. Then the master
mixture was prepared: N wells x (6 μl 5x Kinase Buffer 1 + 1 µl ATP (500 µM) + 1
µl PTK substrate Poly (Glu:Tyr 4:1) (10 mg/ml)+ 17 μl water) and 25 μl of the
mixture was added to every well. The tested compounds were dissolved in DMSO,
well labeled as “Positive Control", 5 μl of the same solution of the reference drug
erlotinib and “Blank”, 5 μl of the same solution without inhibitor (Inhibitor buffer).
ml of 1x Kinase Buffer 1) was prepared by mixing 600 µl of 5x Kinase Buffer 1 with
The reaction initiated by adding 20 µl of diluted EGFR enzyme to the wells designated “Positive Control” and "Test Inhibitor Control". Incubate at 30°C for 40
minutes. Thaw Kinase-G lo Max reagent. After the 40 minute reaction, 50 µl of
Kinase-Glo Max reagent was added to each well. The plate was covered with
aluminum foil and incubate at room temperature for 15 minutes. Then the
luminescence was measured using the microplate reader (Infinite M200 microplate
reader, Tecan, Männedorf, Switzerland). All assays were performed in triplicate. The
relative inhibition (%) of inhibitors were then calculated compared to the control with
no inhibitor. Then the IC50 values and their standard deviation (SD) for the tested
compounds and the reference drug were determined in (nM).

[18] = system: five bacterial and five fungal strains; assay: Antimicrobial MIC, range over bacterial and fungal strains; assay type: cell-based; conditions: for MIC range of the reference drugs: range over strains

Sequence of EGFR kinase (P00533 25-1210): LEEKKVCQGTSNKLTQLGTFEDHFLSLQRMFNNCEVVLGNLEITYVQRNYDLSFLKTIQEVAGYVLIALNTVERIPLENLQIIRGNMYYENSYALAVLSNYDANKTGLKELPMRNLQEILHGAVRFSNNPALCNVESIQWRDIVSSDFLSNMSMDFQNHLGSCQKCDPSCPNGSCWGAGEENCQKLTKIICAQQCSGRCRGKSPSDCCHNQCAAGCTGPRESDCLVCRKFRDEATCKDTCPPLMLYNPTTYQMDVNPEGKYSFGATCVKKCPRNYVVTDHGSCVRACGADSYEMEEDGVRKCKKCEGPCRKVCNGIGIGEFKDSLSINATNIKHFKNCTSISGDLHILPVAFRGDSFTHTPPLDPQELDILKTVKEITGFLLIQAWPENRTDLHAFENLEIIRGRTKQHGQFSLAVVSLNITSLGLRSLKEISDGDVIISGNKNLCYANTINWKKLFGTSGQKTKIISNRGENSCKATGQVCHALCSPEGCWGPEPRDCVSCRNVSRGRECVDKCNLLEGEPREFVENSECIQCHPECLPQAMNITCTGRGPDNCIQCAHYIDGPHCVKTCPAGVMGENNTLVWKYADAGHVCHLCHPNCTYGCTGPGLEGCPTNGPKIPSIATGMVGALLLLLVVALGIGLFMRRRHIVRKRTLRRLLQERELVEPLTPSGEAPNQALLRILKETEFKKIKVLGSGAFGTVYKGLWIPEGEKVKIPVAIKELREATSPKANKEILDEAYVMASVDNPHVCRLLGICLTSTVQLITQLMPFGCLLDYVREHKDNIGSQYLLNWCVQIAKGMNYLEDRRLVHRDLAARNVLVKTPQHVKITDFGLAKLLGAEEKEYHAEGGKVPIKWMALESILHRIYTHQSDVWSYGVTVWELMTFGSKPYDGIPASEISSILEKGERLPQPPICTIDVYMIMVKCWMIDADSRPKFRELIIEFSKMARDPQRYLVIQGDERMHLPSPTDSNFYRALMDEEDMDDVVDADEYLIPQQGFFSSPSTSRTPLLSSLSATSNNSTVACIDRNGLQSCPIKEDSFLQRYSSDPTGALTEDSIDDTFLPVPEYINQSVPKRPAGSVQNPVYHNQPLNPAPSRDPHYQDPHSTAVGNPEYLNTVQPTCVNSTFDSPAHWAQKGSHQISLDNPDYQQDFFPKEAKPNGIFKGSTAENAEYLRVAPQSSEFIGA

Compound | MIC [1] | MIC [2] | MIC [3] | MIC [4] | MIC [5] | MIC [6] | MIC [7] | MIC [8] | MIC [9] | MIC [10] | IC50 [11] | IC50 ([12]; Homo sapiens, MCF7, MCF7 cells) | MIC range against the tested bacterial strains [13] | melting point | MIC range against the tested yeasts and fungi strains [15] | IC50 [16] | other results
Cc1ccc(-c2cc(-c3ccccc3)nc3sc4c(c23)NC2(CCCC2)NC4=S)cc1 [Compound 7b, 7′-Phenyl-9′-(p-tolyl)-1′H-spiro[cyclopentane-1,2′-pyrido[3′,2′:4,5]thieno[3,2-d]pyrimidine]-4′(3′H)-thione] | 64 µg/mL (≈ 145 µM) | 64 µg/mL (≈ 145 µM) | 64 µg/mL (≈ 145 µM) | 64 µg/mL (≈ 145 µM) | 128 µg/mL (≈ 290 µM) | 64 µg/mL (≈ 145 µM) | 64 µg/mL (≈ 145 µM) | 32 µg/mL (≈ 72.5 µM) | 64 µg/mL (≈ 145 µM) | 128 µg/mL (≈ 290 µM) | 39.7 ± 1.89 µM | 41.6 ± 2.2 µM | 64 to 128 µg/mL | – | – | – | –
Cc1cc(C)c2c3c(sc2n1)C(=O)NC1(CCCC1)N3 [Compound 6a, 7′,9′-Dimethyl-1′H-spiro[cyclopentane-1,2′-pyrido[3′,2′:4,5]thieno[3,2-d]pyrimidin]-4′(3′H)-one] | 32 µg/mL (≈ 111 µM) | 16 µg/mL (≈ 55.7 µM) | 8 µg/mL (≈ 27.8 µM) | 32 µg/mL (≈ 111 µM) | 16 µg/mL (≈ 55.7 µM) | 64 µg/mL (≈ 223 µM) | 16 µg/mL (≈ 55.7 µM) | 32 µg/mL (≈ 111 µM) | 64 µg/mL (≈ 223 µM) | 32 µg/mL (≈ 111 µM) | 52.2 ± 1.45 µM | 77.4 ± 3.62 µM | 8 to 32 µg/mL | 245 to 246 °C | – | – | IC50 [14]: 12.1 to 77.4 µM
Cc1ccc(-c2cc(-c3ccccc3)nc3sc4c(=O)[nH]c(CCl)nc4c23)cc1 [Compound 4b, 2-(Chloromethyl)-7-phenyl-9-(p-tolyl)pyrido[3′,2′:4,5]thieno[3,2-d]pyrimidin-4(3H)-one] | 8 µg/mL (≈ 19.1 µM) | 128 µg/mL (≈ 306 µM) | 16 µg/mL (≈ 38.3 µM) | 128 µg/mL (≈ 306 µM) | 128 µg/mL (≈ 306 µM) | 8 µg/mL (≈ 19.1 µM) | 16 µg/mL (≈ 38.3 µM) | 8 µg/mL (≈ 19.1 µM) | 16 µg/mL (≈ 38.3 µM) | 16 µg/mL (≈ 38.3 µM) | 36.5 ± 1.82 µM | 43.3 ± 2.28 µM | – | 310 °C | 4 to 16 µg/mL | – | –
Cc1ccc(-c2cc(-c3ccccc3)nc3sc4c(c23)NC2(CCCC2)N=C4SCC(N)=O)cc1 [Compound 8b, 2-((7′-Phenyl-9′-(p-tolyl)-1′H-spiro[cyclopentane-1,2′-pyrido[3′,2′:4,5]thieno[3,2-d]pyrimidin]-4′-yl)sulfanyl)acetamide] | 4 µg/mL (≈ 8.02 µM) | 8 µg/mL (≈ 16 µM) | 16 µg/mL (≈ 32.1 µM) | 8 µg/mL (≈ 16 µM) | 16 µg/mL (≈ 32.1 µM) | 8 µg/mL (≈ 16 µM) | 16 µg/mL (≈ 32.1 µM) | 16 µg/mL (≈ 32.1 µM) | 8 µg/mL (≈ 16 µM) | 8 µg/mL (≈ 16 µM) | 2.79 ± 0.08 µM | 13.5 ± 0.76 µM | – | 148 to 149 °C | 4 to 16 µg/mL | 401 ± 17.3 µM | IC50 [17]: 0.03844 ± 0.00025 µM
CC1(C)S[C@@H]2[C@H](NC(=O)[C@H](N)c3ccc(O)cc3)C(=O)N2[C@H]1C(=O)O [Amoxicillin, amoxicillin trihydrate, reference compound] | 4 µg/mL | 8 µg/mL | 16 µg/mL | 8 µg/mL | 16 µg/mL | – | – | – | – | – | – | – | 4 to 16 µg/mL | – | – | – | MIC range of the reference drugs [18]: 4 to 16 µM
Cc1ccc(-c2cc(-c3ccccc3)nc3sc4c(c23)NC2(CCCCC2)NC4=O)cc1 [Compound 6d, 7′-Phenyl-9′-(p-tolyl)-1′H-spiro[cyclohexane-1,2′-pyrido[3′,2′:4,5]thieno[3,2-d]pyrimidin]-4′(3′H)-one] | 8 µg/mL (≈ 18.2 µM) | 32 µg/mL (≈ 72.8 µM) | 8 µg/mL (≈ 18.2 µM) | 32 µg/mL (≈ 72.8 µM) | 32 µg/mL (≈ 72.8 µM) | 64 µg/mL (≈ 146 µM) | 64 µg/mL (≈ 146 µM) | 32 µg/mL (≈ 72.8 µM) | 32 µg/mL (≈ 72.8 µM) | 16 µg/mL (≈ 36.4 µM) | 4.45 ± 0.22 µM | 21.7 ± 0.7 µM | 8 to 32 µg/mL | 263 °C | – | – | –
Cc1cc(C)c2c(n1)sc1c(=O)[nH]c(CCl)nc12 [Compound 4a, 2-(Chloromethyl)-7,9-dimethylpyrido[3′,2′:4,5]thieno[3,2-d]pyrimidin-4(3H)-one] | 4 µg/mL (≈ 14.3 µM) | 8 µg/mL (≈ 28.6 µM) | 4 µg/mL (≈ 14.3 µM) | 8 µg/mL (≈ 28.6 µM) | 16 µg/mL (≈ 57.2 µM) | 16 µg/mL (≈ 57.2 µM) | 16 µg/mL (≈ 57.2 µM) | 8 µg/mL (≈ 28.6 µM) | 8 µg/mL (≈ 28.6 µM) | 8 µg/mL (≈ 28.6 µM) | 2.99 ± 0.15 µM | 15.4 ± 0.45 µM | – | 330 to 331 °C | 4 to 16 µg/mL | 460 ± 11.1 µM | IC50 [17]: 0.027 µM and 0.0536 µM; Fold more potent than erlotinib (EGFR inhibition) ([17]; relative to erlotinib): 1.5 fold
Clc1ccccc1C(c1ccccc1)(c1ccccc1)n1ccnc1 [Clotrimazole, clotrimazole, reference compound] | – | – | – | – | – | 16 µg/mL (≈ 46.4 µM) | 8 µg/mL (≈ 23.2 µM) | 8 µg/mL (≈ 23.2 µM) | 8 µg/mL (≈ 23.2 µM) | 8 µg/mL (≈ 23.2 µM) | – | – | – | – | 4 to 16 µg/mL | – | MIC range of the reference drugs [18]: 4 to 16 µM
Cc1ccc(-c2cc(-c3ccccc3)nc3sc4c(c23)NC2(CCCC2)NC4=O)cc1 [Compound 6b, 7′-Phenyl-9′-(p-tolyl)-1′H-spiro[cyclopentane-1,2′-pyrido[3′,2′:4,5]thieno[3,2-d]pyrimidin]-4′(3′H)-one] | 4 µg/mL (≈ 9.4 µM) | 8 µg/mL (≈ 18.8 µM) | 16 µg/mL (≈ 37.6 µM) | 8 µg/mL (≈ 18.8 µM) | 16 µg/mL (≈ 37.6 µM) | 8 µg/mL (≈ 18.8 µM) | 8 µg/mL (≈ 18.8 µM) | 8 µg/mL (≈ 18.8 µM) | 16 µg/mL (≈ 37.6 µM) | 8 µg/mL (≈ 18.8 µM) | 2.75 ± 0.13 µM | 9.89 ± 0.55 µM | – | 210 °C | 4 to 16 µg/mL | 395 ± 10.2 µM | IC50 ([12]; MCF7 cells): 9.89 ± 0.55 µM; IC50 [17]: 0.05319 ± 0.00046 µM
Cc1cc(C)c2c3c(sc2n1)C(SCC1CO1)=NC1(CCCCC1)N3 (stereo not drawn) [Compound 9a, 7′,9′-Dimethyl-4′-((oxiran-2-ylmethyl)sulfanyl)-1′H-spiro[cyclohexane-1,2′-pyrido[3′,2′:4,5]thieno[3,2-d]pyrimidine]] | 16 µg/mL (≈ 42.8 µM) | 32 µg/mL (≈ 85.7 µM) | 8 µg/mL (≈ 21.4 µM) | 32 µg/mL (≈ 85.7 µM) | 16 µg/mL (≈ 42.8 µM) | 16 µg/mL (≈ 42.8 µM) | 32 µg/mL (≈ 85.7 µM) | 32 µg/mL (≈ 85.7 µM) | 16 µg/mL (≈ 42.8 µM) | 64 µg/mL (≈ 171 µM) | 4.88 ± 0.65 µM | 23.6 ± 1.24 µM | 8 to 32 µg/mL | 155 °C | – | – | –
COc1cccc2c1C(=O)c1c(O)c3c(c(O)c1C2=O)C[C@@](O)(C(=O)CO)C[C@@H]3O[C@H]1C[C@H](N)[C@H](O)[C@H](C)O1 [Doxorubicin, doxorubicin, reference compound] | – | – | – | – | – | – | – | – | – | – | 2.85 ± 0.21 µM | 3.58 ± 0.33 µM | – | – | – | 432 ± 19.3 µM | –
Cc1cc(C)c2c(n1)sc1c(Cl)nc(Cl)nc12 [Compound 3a, 2,4-Dichloro-7,9-dimethylpyrido[3′,2′:4,5]thieno[3,2-d]pyrimidine] | 4 µg/mL (≈ 14.1 µM) | 4 µg/mL (≈ 14.1 µM) | 8 µg/mL (≈ 28.2 µM) | 8 µg/mL (≈ 28.2 µM) | 16 µg/mL (≈ 56.3 µM) | 16 µg/mL (≈ 56.3 µM) | 8 µg/mL (≈ 28.2 µM) | 8 µg/mL (≈ 28.2 µM) | 8 µg/mL (≈ 28.2 µM) | 8 µg/mL (≈ 28.2 µM) | 2.31 ± 0.35 µM | 7.24 ± 0.64 µM | – | 250 to 251 °C | 4 to 16 µg/mL | 417 ± 15.2 µM | MIC range, antibacterial and antifungal ([18]; range over bacterial and fungal strains): 4 to 16 µg/mL; IC50 [17]: 0.0173 ± 0.00024 µM
Cc1cc(C)c2c3c(sc2n1)C(SCC(N)=O)=NC1(CCCCC1)N3 [Compound 8a, 2-((7′,9′-Dimethyl-1′H-spiro[cyclohexane-1,2′-pyrido[3′,2′:4,5]thieno[3,2-d]pyrimidin]-4′-yl)sulfanyl)acetamide] | 8 µg/mL (≈ 21.4 µM) | 16 µg/mL (≈ 42.7 µM) | 8 µg/mL (≈ 21.4 µM) | 32 µg/mL (≈ 85.4 µM) | 32 µg/mL (≈ 85.4 µM) | 64 µg/mL (≈ 171 µM) | 16 µg/mL (≈ 42.7 µM) | 16 µg/mL (≈ 42.7 µM) | 16 µg/mL (≈ 42.7 µM) | 16 µg/mL (≈ 42.7 µM) | 6.78 ± 0.73 µM | 20.9 ± 1.46 µM | 8 to 32 µg/mL | 160 to 161 °C | – | – | –
Cc1cc(C)c2c3c(sc2n1)C(=O)NC1(CCCCC1)N3 [Compound 6c, 7′,9′-Dimethyl-1′H-spiro[cyclohexane-1,2′-pyrido[3′,2′:4,5]thieno[3,2-d]pyrimidin]-4′(3′H)-one] | 4 µg/mL (≈ 13.3 µM) | 4 µg/mL (≈ 13.3 µM) | 8 µg/mL (≈ 26.5 µM) | 8 µg/mL (≈ 26.5 µM) | 16 µg/mL (≈ 53.1 µM) | 16 µg/mL (≈ 53.1 µM) | 4 µg/mL (≈ 13.3 µM) | 16 µg/mL (≈ 53.1 µM) | 4 µg/mL (≈ 13.3 µM) | 8 µg/mL (≈ 26.5 µM) | 12.1 ± 0.33 µM | 22.2 ± 0.67 µM | – | 290 to 291 °C | 4 to 16 µg/mL | – | IC50 [14]: 12.1 to 77.4 µM
